From US6645283B1, “Anthrapyridone compounds, water-based magenta ink composition, and method of ink-jet printing” (Nippon Kayaku Kabushiki Kaisha, priority 1998, dated 2003)

test: Solubility in water of the dyestuff; assay type: physicochemical; conditions: not given
Experimental: (5) The wet cake obtained in above (4)was added in 1500 parts of methanol, followed by heating at 60-65° C. and stirring for 1 hr. The crystal was filtered to separate, washed with methanol and dried to obtain 42.0 parts of the compound of No.2 as a red crystal. λmax:523 nm (in water, the ammonium salt); solubility in water:100 g/l or above.
(2) The wet cake obtained in this (1) was desalted as in Example 1(5) to obtain 35.0 parts of the compound of No.5 as a red crystal. λmax:522 nm (in water, the ammonium salt); solubility in water:100 g/l or more.
(2) To the reaction solution of the above (1) was added 4.7 parts of the compound of Formula (5) (R1=CH3, R2=H) obtained as in Example 1 (1) and 1(2), followed by raising the temperature and dropping 10% aqueous sodium hydroxide at 60-65° C. to maintain the pH at 4-5 for 1 hr for the reaction. The solution was maintained for 1 hr at pH 6.5-7.0, and filtered to remove a little insoluble matter, to obtain the reaction solution containing the compound of No.15. The reaction solution was diluted with water to obtain 250 parts of the diluted solution, followed by heating at 60-65° C., adding 50 parts of sodium chloride and stirring for about 30 min to deposit crystal. After stirring for 1 hr, the crystal was filtered to separate, washed with 100 parts of 10% aqueous sodium chloride, and dried to obtain 8.9 parts of the sodium salt of the compound of No.15 as a red crystal. λmax:527 nm (in water); solubility in water:100 g/l or more.
The anthrapyridone dyestuff of the present invention is suitable for an ink-jet magenta dyestuff because it has values in hue and brightness close to those of the JNC standard magenta. The dyestuff of the present invention also, when used on a special paper, can provide good light fastness and water fastness. […] Further, the dyestuffs of No.2, No.5 and No.15 obtained in Example 1 to 3 have their water-solubilities of 100 g/l or more under an alkaline condition (pH 8-9) and therefore enable to prepare stable inks for ink-jetting. […]

| SMILES | solubility in water |
| --- | --- |
| Cn1c(=O)cc2c3c(c(Nc4cc(Nc5nc(NCCS(=O)(=O)O)nc(Nc6cc(C(=O)O)cc(C(=O)O)c6)n5)ccc4S(=O)(=O)O)ccc31)C(=O)c1ccccc1-2 [No.2] | ≥ 100 mg/mL |

test: Light fastness test of recorded image, carbon arc fade meter, 20 hours; assay type: physicochemical; conditions: Glossy Film (GF); carbon arc 20 hours
Excerpt: (§1) Each water-based ink composition was produced by preparing the liquids which contain the anthrapyridone compounds (dyestuff components) of No.2, No.5 and No.15 respectively and have a composition of Table 2 as shown below, and then filtering through 0.45 μm membrane filter.
(§2) By using an ink-jet printer (Trade name: PICTY80L, made by NEC KK), ink-jet recordings were done on four types of recording sheets: a plain paper (Printer paper A4, TLB5A4S made by Canon KK), a special paper A (Color BJ Paper LC101 made by Canon KK), a special paper B (Coated paper for color image jetting, STX73A4 made by Sharp KK), and a glossy film (Special glossy film, MJA4SP6 made by Seiko-Epson KK).
A carbon arc fade meter (by Suga Testing Machine Co.) was used to irradiate carbon arc on the recorded images for 20 hours. Grade was judged according to JIS L-0841 blue scale. A color difference (ΔE) between before and after the test was measured by the above color determination system.

| SMILES | Light fastness (ΔE) |
| --- | --- |
| Cn1c(=O)cc2c3c(c(Nc4cc(Nc5nc(NCCS(=O)(=O)O)nc(Nc6cc(C(=O)O)cc(C(=O)O)c6)n5)ccc4S(=O)(=O)O)ccc31)C(=O)c1ccccc1-2 [No.2] | (3.6) |

same assay, conditions: Glossy Film (GF); carbon arc 20 hours; JIS L-0841 blue scale

| SMILES | Light fastness Grade |
| --- | --- |
| Cn1c(=O)cc2c3c(c(Nc4cc(Nc5nc(NCCS(=O)(=O)O)nc(Nc6cc(C(=O)O)cc(C(=O)O)c6)n5)ccc4S(=O)(=O)O)ccc31)C(=O)c1ccccc1-2 [No.2] | 4 |

same assay, conditions: Plain Paper (PP); carbon arc 20 hours; JIS L-0841 blue scale

| SMILES | Light fastness Grade |
| --- | --- |
| Cn1c(=O)cc2c3c(c(Nc4cc(Nc5nc(NCCS(=O)(=O)O)nc(Nc6cc(C(=O)O)cc(C(=O)O)c6)n5)ccc4S(=O)(=O)O)ccc31)C(=O)c1ccccc1-2 [No.2] | 4 |

same assay, conditions: Plain Paper (PP); carbon arc 20 hours; color difference before/after

| SMILES | Light fastness (ΔE) |
| --- | --- |
| Cn1c(=O)cc2c3c(c(Nc4cc(Nc5nc(NCCS(=O)(=O)O)nc(Nc6cc(C(=O)O)cc(C(=O)O)c6)n5)ccc4S(=O)(=O)O)ccc31)C(=O)c1ccccc1-2 [No.2] | (3.7) |

same assay, conditions: Special Paper A (SA); carbon arc 20 hours

| SMILES | Light fastness (ΔE) |
| --- | --- |
| Cn1c(=O)cc2c3c(c(Nc4cc(Nc5nc(NCCS(=O)(=O)O)nc(Nc6cc(C(=O)O)cc(C(=O)O)c6)n5)ccc4S(=O)(=O)O)ccc31)C(=O)c1ccccc1-2 [No.2] | (11.1) |

same assay, conditions: Special Paper A (SA); carbon arc 20 hours; JIS L-0841 blue scale

| SMILES | Light fastness Grade |
| --- | --- |
| Cn1c(=O)cc2c3c(c(Nc4cc(Nc5nc(NCCS(=O)(=O)O)nc(Nc6cc(C(=O)O)cc(C(=O)O)c6)n5)ccc4S(=O)(=O)O)ccc31)C(=O)c1ccccc1-2 [No.2] | 3 |

same assay, conditions: Special Paper B (SB); carbon arc 20 hours

| SMILES | Light fastness (ΔE) |
| --- | --- |
| Cn1c(=O)cc2c3c(c(Nc4cc(Nc5nc(NCCS(=O)(=O)O)nc(Nc6cc(C(=O)O)cc(C(=O)O)c6)n5)ccc4S(=O)(=O)O)ccc31)C(=O)c1ccccc1-2 [No.2] | (7.2) |

same assay, conditions: Special Paper B (SB); carbon arc 20 hours; JIS L-0841 blue scale

| SMILES | Light fastness Grade |
| --- | --- |
| Cn1c(=O)cc2c3c(c(Nc4cc(Nc5nc(NCCS(=O)(=O)O)nc(Nc6cc(C(=O)O)cc(C(=O)O)c6)n5)ccc4S(=O)(=O)O)ccc31)C(=O)c1ccccc1-2 [No.2] | 3-4 |

test: Water fastness test of recorded paper, dipped into water, stirred for 2 min, air-dried; assay type: physicochemical; conditions: Glossy Film (GF); water 2 min
Excerpt: as §1, §2
A recorded paper was dipped into water in a beaker, stirred for 2 min, and air-dried. The change between before and after the test was judged by the JIS color fading grey scale. Alternatively, a color difference (ΔE) between before and after the test was measured by the above color determination system.

| SMILES | Water fastness (ΔE) |
| --- | --- |
| Cn1c(=O)cc2c3c(c(Nc4cc(Nc5nc(NCCS(=O)(=O)O)nc(Nc6cc(C(=O)O)cc(C(=O)O)c6)n5)ccc4S(=O)(=O)O)ccc31)C(=O)c1ccccc1-2 [No.2] | (3.5) |

same assay, conditions: Glossy Film (GF); water 2 min; JIS color fading grey scale

| SMILES | Water fastness Grade |
| --- | --- |
| Cn1c(=O)cc2c3c(c(Nc4cc(Nc5nc(NCCS(=O)(=O)O)nc(Nc6cc(C(=O)O)cc(C(=O)O)c6)n5)ccc4S(=O)(=O)O)ccc31)C(=O)c1ccccc1-2 [No.2] | 4 |

same assay, conditions: Plain Paper (PP); water 2 min; JIS color fading grey scale

| SMILES | Water fastness Grade |
| --- | --- |
| Cn1c(=O)cc2c3c(c(Nc4cc(Nc5nc(NCCS(=O)(=O)O)nc(Nc6cc(C(=O)O)cc(C(=O)O)c6)n5)ccc4S(=O)(=O)O)ccc31)C(=O)c1ccccc1-2 [No.2] | 3-4 |

same assay, conditions: Plain Paper (PP); water 2 min; color difference before/after

| SMILES | Water fastness (ΔE) |
| --- | --- |
| Cn1c(=O)cc2c3c(c(Nc4cc(Nc5nc(NCCS(=O)(=O)O)nc(Nc6cc(C(=O)O)cc(C(=O)O)c6)n5)ccc4S(=O)(=O)O)ccc31)C(=O)c1ccccc1-2 [No.2] | (8.6) |

same assay, conditions: Special Paper A (SA); water 2 min

| SMILES | Water fastness (ΔE) |
| --- | --- |
| Cn1c(=O)cc2c3c(c(Nc4cc(Nc5nc(NCCS(=O)(=O)O)nc(Nc6cc(C(=O)O)cc(C(=O)O)c6)n5)ccc4S(=O)(=O)O)ccc31)C(=O)c1ccccc1-2 [No.2] | (2.2) |

same assay, conditions: Special Paper A (SA); water 2 min; JIS color fading grey scale

| SMILES | Water fastness Grade |
| --- | --- |
| Cn1c(=O)cc2c3c(c(Nc4cc(Nc5nc(NCCS(=O)(=O)O)nc(Nc6cc(C(=O)O)cc(C(=O)O)c6)n5)ccc4S(=O)(=O)O)ccc31)C(=O)c1ccccc1-2 [No.2] | 4 |

same assay, conditions: Special Paper B (SB); water 2 min

| SMILES | Water fastness (ΔE) |
| --- | --- |
| Cn1c(=O)cc2c3c(c(Nc4cc(Nc5nc(NCCS(=O)(=O)O)nc(Nc6cc(C(=O)O)cc(C(=O)O)c6)n5)ccc4S(=O)(=O)O)ccc31)C(=O)c1ccccc1-2 [No.2] | (5.5) |

same assay, conditions: Special Paper B (SB); water 2 min; JIS color fading grey scale

| SMILES | Water fastness Grade |
| --- | --- |
| Cn1c(=O)cc2c3c(c(Nc4cc(Nc5nc(NCCS(=O)(=O)O)nc(Nc6cc(C(=O)O)cc(C(=O)O)c6)n5)ccc4S(=O)(=O)O)ccc31)C(=O)c1ccccc1-2 [No.2] | 3-4 |
